From PubChem BioAssay AID1996 come the findings set out here.

≈ marks a conversion by molar mass, not a printed value. Bounds are passed on as bounds.

The conditions of the data set: buffer; pH 7.4; 200.0 µM.
`Cc1cccc(N(Cc2cc(=O)[nH]c3ccccc23)C(=O)C(C)C)c1` returned a kinetic solubility of 36.3 µg/mL (≈ 109 µM). As for `CCC(C)NC(=O)CN1C(=O)C(CC)Sc2ccccc21` (stereo not drawn), the solubility (kinetic) is above 46 µg/mL. With `O=[N+]([O-])c1cccc(/C=N/n2cnnc2)c1` the figure was above 32.6 µg/mL; with `COc1ccc2[nH]cc(CCNS(=O)(=O)c3ccc(C)cc3)c2c1`, 50.6 µg/mL (≈ 147 µM). Under `CCC(=O)Nc1ccc2c(c1)ncn2-c1ccc(C)cc1` stands above 41.9 µg/mL; under `COc1ccc(C(O)(CCN2CCOCC2)c2ccccc2)cc1` (stereo not drawn), 41.1 µg/mL (≈ 126 µM). On to `Cn1c(=O)n(C)c2cc(NC(=O)c3ccc(F)cc3)c(Br)cc21`, for which the kinetic solubility is 8.2 µg/mL (≈ 21.7 µM). Turning to `CC(NC(=O)COC(=O)c1ccccc1O)C1CC2CCC1C2` (stereo not drawn), the solubility (kinetic) was determined as 14.1 µg/mL (≈ 44.4 µM). This solubility kinetic is about 1.7-fold higher than that of the molecule before. The molecule `O=S(=O)(c1ccccc1)c1ccc(N2CCCCCC2)cc1` showed a solubility (kinetic) below 0.7 µg/mL.

Consider `Cn1cc(S(=O)(=O)NCCc2ccccc2)c(=O)n(C)c1=O`, for which the solubility (kinetic) is above 48.5 µg/mL.

The molecule `COc1ccc(OCc2cc(=O)[nH]c3ccccc23)cc1` registered a solubility (kinetic) of 2.9 µg/mL (≈ 10.3 µM). Regarding `Cc1cc(NC(=O)CN(C)S(=O)(=O)c2cccc(Cl)c2)no1`, the kinetic solubility came out at 10.5 µg/mL (≈ 30.5 µM). With `c1ccc(C2Nc3ccccc3C3OCCCC23)cc1` (stereo not drawn), the solubility (kinetic) stood at 7.3 µg/mL (≈ 27.5 µM).

`OCc1ccccc1OCCCOc1cccc2cccnc12`: the solubility (kinetic) was above 46.4 µg/mL.

Molecule `O=C(NC1CCN(C(=O)Nc2cccc(F)c2)CC1)c1ccco1` displayed a kinetic solubility above 49.7 µg/mL. With `CCCCn1c(=O)c(C(=O)Nc2ccccc2C)c(O)c2ccccc21`, the solubility (kinetic) is below 0.4 µg/mL. In turn, `CN(c1ccccc1)c1ccc([N+](=O)[O-])c2nonc12` came in with a solubility (kinetic) of 2.1 µg/mL (≈ 7.77 µM). Turning to `Cc1cnc(C(=O)NC2CCSc3ccccc32)cn1` (stereo not drawn), the solubility (kinetic) came to 26.2 µg/mL (≈ 91.8 µM). This solubility kinetic lies about 12-fold higher than the previous one. As to `Clc1cccc(Sc2ccc(-c3ccccn3)s2)c1`, the kinetic solubility was below 0.7 µg/mL. `CN(C)CCC(=O)C(Cc1ccccc1)c1ccccc1.Cl` (stereo not drawn) displayed a solubility (kinetic) of 44.7 µg/mL. Regarding `CCc1c(-c2ccccc2)nc2sc3c(c2c1N)CCCC3`, the kinetic solubility was below 0.3 µg/mL.

Turning to `CC1=C(C)CC(C(=O)NCc2ccccn2)C(C(=O)O)C1` (stereo not drawn), the kinetic solubility is above 43.3 µg/mL.

On to `CC(C)(C)c1ccc(C(=O)Nc2ccc(Oc3cccnc3)nc2)cc1`, for which the solubility (kinetic) was found to be 14.1 µg/mL (≈ 40.6 µM). With `Cc1nc(-c2cc(-c3nc(-c4ccc(C(C)(C)C)cc4)no3)no2)cs1`, the solubility (kinetic) was below 0.2 µg/mL.

`Nc1ccc(-c2c3ccccc3nc3ccccc23)cc1` had a solubility (kinetic) below 0.3 µg/mL. `COC(=O)c1c(C)nc(C)c(C(=O)OC)c1-c1ccc(OC)cc1` displayed a kinetic solubility above 49.4 µg/mL. `CCCCn1c(O)c(C(CC)=NCCCn2ccnc2)c(=O)[nH]c1=O` yielded a kinetic solubility of 48.2 µg/mL (≈ 139 µM). `Cc1ccc(C(=O)C2CCN(CC(=O)Nc3ccccc3C)CC2)cc1` showed a solubility (kinetic) of 1.7 µg/mL (≈ 4.85 µM). Against the preceding molecule, the solubility kinetic is about 28-fold lower.

As to `CCOC(=O)C1CCN(S(=O)(=O)c2cn(C)c(C)n2)CC1`, the solubility (kinetic) was above 47.3 µg/mL. In the case of `CCc1ccc(N2CC(C(=O)Nc3ccc(F)cc3)CC2=O)cc1` (stereo not drawn), the solubility (kinetic) was 0.8 µg/mL (≈ 2.45 µM). In turn, `COc1ccccc1-c1cc(-c2ccc(O)cc2)nc(N)c1C#N` gave a kinetic solubility of 3.7 µg/mL (≈ 11.7 µM). With `CCCC1c2ccsc2CCN1C(=S)NC` (stereo not drawn) the figure was 29.8 µg/mL (≈ 117 µM); with `COc1ccccc1C(=O)Nc1nc2cc3c(cc2s1)OCO3`, below 0.4 µg/mL.

For the molecule `COc1ccccc1NC(=O)NC1CCS(=O)(=O)C1` (stereo not drawn), the solubility (kinetic) was above 42.6 µg/mL. On to `Cc1ccc(CSC2=NCCN2C(=O)C(C)Oc2ccccc2)cc1` (stereo not drawn), for which the kinetic solubility is 4.4 µg/mL (≈ 12.4 µM). For `N#CC1(c2ccccc2)CCC(=O)N1c1ccccc1` (stereo not drawn), the kinetic solubility was above 39.3 µg/mL. The molecule `NC(=O)CNC(=O)c1ccc(Cl)cc1` displayed a solubility (kinetic) above 31.9 µg/mL. In the case of `CC(=O)Nc1cccc(C(=O)OC(C)C(=O)N2CCc3ccccc32)c1` (stereo not drawn), the solubility (kinetic) came out at 1.3 µg/mL (≈ 3.69 µM). On to `Cc1ccc(OCC(=O)NC(C)c2ccccc2)c([N+](=O)[O-])n1` (stereo not drawn), for which the kinetic solubility was determined as 47.1 µg/mL (≈ 149 µM). `Cc1c(C(=O)OCC(=O)N2CCCCC2C)oc2ccccc12` (stereo not drawn) came in with a kinetic solubility above 47.3 µg/mL. `FC(F)(F)c1nc2ccccc2[nH]1`: the solubility (kinetic) was above 27.9 µg/mL. Consider `NS(=O)(=O)c1cccc(NC(=O)COC(=O)c2ccccc2SCC(=O)N2CCCC2)c1`, for which the kinetic solubility was above 71.6 µg/mL.

The molecule `O=C(O)/C=C/c1ccc(S(=O)(=O)Nc2ccc3[nH]c(=O)[nH]c3c2)cc1` returned a kinetic solubility above 53.9 µg/mL.

The molecule `CC1CCN(C(=O)COc2cccc3c2CCN(Cc2ccccc2)C3=O)CC1` displayed a solubility (kinetic) of 55.9 µg/mL (≈ 142 µM). Under `Cl.OCCNCCNCc1ccc(-c2ccccc2)cc1` stands above 51.5 µg/mL; under `Cc1onc(-c2ccccc2)c1C(=O)N(Cc1ccccc1)C(C)C`, above 50.2 µg/mL; under `O=C1CC(=O)N(c2ccccc2F)C(=O)N1`, above 33.3 µg/mL. The molecule `Cc1ccc(C)c(Nc2c([N+](=O)[O-])ccc3nonc23)c1` showed a solubility (kinetic) of 0.2 µg/mL (≈ 0.704 µM). With `C=CCN(c1nc(C)cc(OC)n1)S(=O)(=O)c1ccccc1`, the kinetic solubility was 19.4 µg/mL (≈ 60.7 µM). Molecule `CCc1ccc(NC(=S)N2CCCC2)cc1` registered a solubility (kinetic) above 35.2 µg/mL. `COc1ccc2[nH]c(-c3ccccc3)cc2c1`: the solubility (kinetic) was below 0.5 µg/mL. As for `Nc1nc(NCc2ccco2)nc(N2CCCC2)c1[N+](=O)[O-]`, the kinetic solubility is above 45.6 µg/mL. In turn, `O=C(CCc1ccccc1)NCC(=O)N/N=C/c1ccc(O)cc1O` had a kinetic solubility above 51.2 µg/mL. Under `O=C1NC(c2cccc(Cl)c2)Oc2ccccc21` (stereo not drawn) stands 1.2 µg/mL (≈ 4.62 µM). `N#C/C(=C\Nc1ccc(F)c(Cl)c1)C(=O)C1CC1` gave a solubility (kinetic) of 1.7 µg/mL (≈ 6.42 µM).

Molecule `Cc1ccc(NC(=O)c2cc3ccccc3o2)cc1` returned a solubility (kinetic) of 1.5 µg/mL (≈ 5.97 µM). For `COc1ccccc1N=C1SCC(=O)N1Cc1ccco1`, the kinetic solubility came out at 35.8 µg/mL (≈ 118 µM). Against the preceding molecule, the solubility kinetic is about 24-fold higher. Under `CCN(CC)c1cc(C)c2cc(NC(=O)c3cccs3)ccc2n1` stands below 0.2 µg/mL; under `CCN1CCN(C(=O)c2c(-c3ccccc3)noc2C)CC1`, 40 µg/mL (≈ 134 µM). `COc1cccc(NC(=O)c2cc(-c3ccco3)nc3ccccc23)c1` yielded a kinetic solubility below 0.4 µg/mL. With `CCOc1cccc(C(=O)N2CCCN(C)CC2)c1` the figure was 35.6 µg/mL (≈ 136 µM); with `CCOC(=O)c1cc(C#N)c(SCC(=O)OC)[nH]c1=O`, above 44.4 µg/mL; with `Cc1ccc(C(C)C)cc1S(=O)(=O)NC1CC(C)(C)NC(C)(C)C1`, 35.2 µg/mL (≈ 99.8 µM). Take `COc1cc(C2NC(=S)NC(c3ccccc3)=C2C(C)=O)ccc1O` (stereo not drawn): the kinetic solubility was 43.8 µg/mL (≈ 124 µM). This solubility kinetic and that of the molecule before are within 1.5-fold of each other. For `O=C(O)C1CCC(CNCc2ccncc2)CC1` (stereo not drawn), the kinetic solubility came to 36.7 µg/mL (≈ 148 µM). In turn, `CC(C)(CNC(=O)Cc1ccc(Cl)cc1Cl)N1CCCCC1` returned a kinetic solubility above 51.5 µg/mL.

Molecule `Cc1cc(C(=O)NCC(=O)Nc2ccc(F)c(F)c2)c(C)o1` showed a solubility (kinetic) of 11.3 µg/mL (≈ 36.7 µM). Turning to `COc1ccc(C(=O)CSc2ncnc3nc[nH]c23)cc1`, the kinetic solubility came to 8 µg/mL (≈ 26.6 µM). `O=C(COc1ccccc1Cl)NC1CC1` returned a solubility (kinetic) above 33.9 µg/mL.

Consider `Cc1cccc(C)c1NC(=O)COC(=O)c1ccccc1O`, for which the solubility (kinetic) worked out at 3 µg/mL (≈ 10 µM).

`O=S(=O)(Nc1ccc2ccccc2n1)c1ccccc1Cl` showed a kinetic solubility of 3.3 µg/mL (≈ 10.4 µM). This solubility kinetic and that of the molecule before are within 1.5-fold of each other. With `COc1ccc2c(C)nc(Nc3nc(-c4ccccc4)cc(=O)[nH]3)nc2c1`, the kinetic solubility was below 0.2 µg/mL. Molecule `CCOC(=O)C1C(c2ccccc2)NC(=S)NC1(C)O` (stereo not drawn) came in with a kinetic solubility of 41.6 µg/mL (≈ 141 µM). `C[n+]1cc(-c2ccccc2)oc1-c1ccccc1` gave a solubility (kinetic) of 24.4 µg/mL. Against the preceding molecule, the solubility kinetic is about 1.7-fold lower. In the case of `CC1CCN(S(=O)(=O)c2ccc(Cl)s2)CC1`, the solubility (kinetic) worked out at 15.3 µg/mL (≈ 54.7 µM). Against the preceding molecule, the solubility kinetic is about 1.6-fold lower. On to `Cc1ccccc1NC(=O)NCc1cccnc1`, for which the solubility (kinetic) is above 36.2 µg/mL. Under `Cc1ccccc1NC(=O)C(C)SCc1ccccc1` (stereo not drawn) stands above 42.8 µg/mL; under `Cc1ccc(S(=O)(=O)N(C)C)cc1NC(=O)COC(=O)COc1ccc2c(C)cc(=O)oc2c1`, above 73.3 µg/mL; under `O=S(=O)(/N=C(/Nc1cccnc1Cl)c1ccccc1)c1ccccc1`, above 55.8 µg/mL. As for `CCC(C)N1C(=O)CCC1C(=O)NCCc1ccc(Cl)cc1` (stereo not drawn), the solubility (kinetic) was above 48.4 µg/mL. In turn, `O=C1C2C3C=CC(C4CC34)C2C(=O)N1c1cccc2ccccc12` (stereo not drawn) gave a kinetic solubility of 42.7 µg/mL (≈ 135 µM).

The molecule `Nc1nnc(SCC(=O)NC2CCCCCCC2)s1` registered a kinetic solubility above 45.1 µg/mL. Under `COn1c(=O)c(-c2ccccc2)[n+]([O-])c2ccccc21` stands above 40.2 µg/mL; under `COC(=O)CSc1nc2ccccc2c(=O)n1Cc1ccccc1`, 0.7 µg/mL (≈ 2.06 µM); under `COC(=O)c1cccc(NC(=O)CCc2c(C)noc2C)c1`, above 45.3 µg/mL. With `N#CC(=NCc1cccnc1)C1=C(O)c2ccccc2C1=O` the figure was 6.4 µg/mL (≈ 22.1 µM); with `COC(=O)C1CCN(C(=O)CN2C(=O)NC(CC(C)C)C2=O)CC1` (stereo not drawn), above 50.9 µg/mL; with `O=C(NCc1ccccc1)c1ccc(CSc2ccccc2)o1`, 11.1 µg/mL (≈ 34.3 µM). `COC(=O)c1ccc(NC(=O)[C@H](C)NC(N)=O)cc1`: the kinetic solubility is above 39.8 µg/mL. With `CC1NC(=O)NC1CCCCCC(=O)Nc1ccc(F)c(Cl)c1` (stereo not drawn) the figure was above 51.3 µg/mL; with `CCCCN(C(=O)CSc1ncnc2sccc12)c1c(N)n(Cc2ccccc2)c(=O)[nH]c1=O`, 3.9 µg/mL (≈ 7.85 µM).

Turning to `O=C1CCN(Cc2ccccc2)C(=O)N1c1ccccc1`, the solubility (kinetic) was above 42 µg/mL. As for `Cc1noc(NC(=O)c2cccc(Cl)c2Cl)c1C#N`, the kinetic solubility was 43.1 µg/mL (≈ 146 µM). `O=C(COC(=O)Cn1ccc(=O)[nH]c1=O)Nc1ccc(F)cc1` yielded a kinetic solubility above 48.2 µg/mL.

Consider `CCC(C)(C)c1ccc(OC(=O)c2cccnc2Cl)cc1`, for which the kinetic solubility is below 0.7 µg/mL. In turn, `CC(C)[C@H](NC(=O)c1ccccc1F)C(=O)OCC(=O)NC(=O)NC1CCCCC1` registered a kinetic solubility of 51.3 µg/mL (≈ 122 µM). Molecule `CCOC(=O)COc1ccc2c(c1)c(C(C)=O)c(C)n2-c1ccccc1` registered a kinetic solubility below 0.8 µg/mL. With `O=C1Cc2cc(S(=O)(=O)Nc3ccc(N4CCOCC4)cc3)ccc2N1`, the kinetic solubility is above 56 µg/mL. With `Cc1cc(OCc2cccc(Cl)c2)c(C)cc1CN1CCOCC1`, the kinetic solubility amounted to 1 µg/mL (≈ 2.89 µM). `Cc1ccc(C(=O)C(C)[n+]2cccc(C(N)=O)c2)cc1.[Br-]` (stereo not drawn) yielded a solubility (kinetic) above 52.4 µg/mL. `CC(C)(C)c1ccc(C(=O)Nc2ccc(F)cc2)s1` came in with a solubility (kinetic) below 0.6 µg/mL. Under `C(=N\N1CCN(c2ccccn2)CC1)/c1ccccn1` stands above 40.1 µg/mL; under `CC1(C)CC(=O)C(N=Nc2cccc([N+](=O)[O-])c2)=C(O)C1`, above 43.4 µg/mL.
